Measured values as given in publication PMC5297809, “Design, Synthesis and Antifungal Activity Evaluation of New Thiazolin-4-ones as Potential Lanosterol 14α-Demethylase Inhibitors” (International Journal of Molecular Sciences, 2017).
In brackets after ≈: the same amount, converted by molar mass.

Tests used:
[1] = tested on: Candida albicans ATCC 10231; experiment: cup-plate agar diffusion method, inhibition zone diameters; assay type: cell-based; settings: ATCC10231, C. albicans ATCC 10231, 1 mg/mL in DMSO, 20 µg/well, mean of three ± SD, read-out: inhibition zone diameters
[2] = tested on: Candida albicans ATCC 18804; experiment: broth microdilution MIC/MFC; assay type: cell-based; settings: for MFC: ATCC18804, C. albicans ATCC 18804, read-out: MFC; for MIC: ATCC18804, C. albicans ATCC 18804, read-out: MIC
[3] = lipophilicity by RP-TLC with PCA; assay type: physicochemical; set-up: key to P1 / P2: PCA scores of compounds computed from Rf data; settings: for RM0: RP-TLC C18, water-i-propanol 45-65%, intercept, RM extrapolated to 0% organic modifier (lipophilicity); for b: RP-TLC regression slope (specific hydrophobic surface area); for P1: score of first principal component of Rf data, low P1 = highly lipophilic; for P2: score of second principal component of Rf data
Description: The lipophilic character of twenty thiazolin-4-one derivatives was assessed with the help of the principal component analysis (PCA) based on the reversed-phase thin-layer chromatography (RP-TLC) data.
The chromatographic behavior of the test compounds was studied on C18 silicagel bonded 60 RP-180F254S TLC (20 × 20 cm) plates, purchased from Merck (Darmstadt, Germany). The test compounds’ solutions (1 mg/mL) were prepared by dissolving the samples in DMSO (Merck, Darmstadt, Germany). The plates were manually spotted with 3 µL aliquots of each solution at 10 mm from the base and 5 mm from the edge of the plate, leaving a 10 mm distance between successive spots, and developed by the ascending technique, without preconditioning. Chromatography was performed in a normal developing chamber at room temperature (~24 °C), the developing distance being of 9 cm. The solvent system used as mobile phase consisted of a water-i-propanol mixture, with a varying content of organic modifier (i-propanol—concentration ranged between 45% and 65% (v/v), with 5% vol. increments). Before the development, the chamber was saturated with the mobile phase for 15 min. After being developed, the dried plates were visually inspected under the UV light (λ = 254 nm), each spot was clearly marked and its distance was manually measured in order to calculate the Rf values. The spots of the compounds 3f, 10 and 11 were not visible in UV light, thus their Rf values could not be calculated, therefore they were excluded from this assay.
Based on the Rf values, one of the most common lipophilic estimator, meaning the isocratic retention factor RM was calculated using the Bate-Smith and Westall equations [40].
RP-TLC provides retention data in the form of Rf and the corresponding RM values (Equation (2)) that can be used to derive chromatographic descriptors for estimating lipophilicity: RM0, b and PCA. The most popular lipophilicity descriptor estimated by this method is RM and it is derived from the retention factor (Rf) according to the following formula: RM = log[(1/Rf) − 1] (2) where Rf is calculated on the basis of migration distance of a compound and the solvent front.
As RM value (related to the molecular lipophilicity) depends linearly on the concentration of the organic modifier in the mobile phase, the value is extrapolated to pure water as mobile phase. In order to increase the accuracy of the lipophilicity determination, the RM values extrapolated to zero organic modifier concentration (RM0) have been calculated from the linear correlation between the RM values and the concentration of the organic component of the mobile phase: RM = RM0 + bc (3) where RM0 is the lipophilicity estimation parameter, RM is the retention of the solute, b is the slope, and c is the concentration of the mobile phase organic modifier (i-propanol).
The intercept (RM0) in Equation (3) represents the extrapolated RM values at 0% organic modifier.
PCA was performed on the obtained retention parameters with the help of XL-STAT extension. […] PCA gave the coordinates (scores) of the studied compounds and also the loadings of the variables (solvents) on the principal components.

[4] = tested on: Candida parapsilosis ATCC 22019; experiment: broth microdilution MIC/MFC; assay type: cell-based; settings: Lodderomyces parapsilosis, ATCC22019, C. parapsilosis ATCC 22019; for MFC: read-out: MFC; for MIC: read-out: MIC
[5] = tested on: Candida albicans ATCC 10231; experiment: broth microdilution MIC/MFC; assay type: cell-based; settings: for MFC: ATCC10231, C. albicans ATCC 10231, read-out: MFC; for MIC: ATCC10231, C. albicans ATCC 10231, read-out: MIC
Candida krusei ATCC 6258 = experiment: broth microdilution MIC/MFC; assay type: cell-based; settings: Pichia kudriavzevii, ATCC6258, C. krusei ATCC 6258; for MFC: read-out: MFC; for MIC: read-out: MIC

MIC [2] [µg/mL]	RM0 [3]	b [3]	P1 [3]	P2 [3]	melting point [°C]	MIC [4] [µg/mL]	MIC [5] [µg/mL]	MIC (Candida krusei ATCC 6258) [µg/mL]	SMILES	zone of inhibition at 1000 µg/mL [1] [mm]	MFC [2] [µg/mL]	MFC [4] [µg/mL]	MFC [5] [µg/mL]	MFC (Candida krusei ATCC 6258) [µg/mL]
1.95 (≈ 5.34 µM)	2.5309	−4.1292	−1.227	−0.239	140	0.48 (≈ 1.32 µM)	3.9 (≈ 10.7 µM)	0.48 (≈ 1.32 µM)	O=C1N=C(Nc2cccc3ccccc23)SC1=Cc1cccc(Cl)c1 [Compound 9a, 5-(3-Chlorobenzylidene)-2-(naphthalen-1-ylamino)thiazol-4(5H)-one]	18 ± 1	7.81 (≈ 21.4 µM)	0.97 (≈ 2.66 µM)	7.81 (≈ 21.4 µM)	0.97 (≈ 2.66 µM)
1.95 (≈ 4.5 µM)	2.3983	−3.319	−3.292	0.708	266 to 268	1.95 (≈ 4.5 µM)	7.81 (≈ 18 µM)	1.95 (≈ 4.5 µM)	O=C1N=C(Nc2cccc3ccccc23)SC1=Cc1coc2ccc(Cl)cc2c1=O [Compound 9e, 5-((6-Chloro-4-oxo-4H-chromen-3-yl)methylene)-2-(naphthalen-1-ylamino)thiazol-4(5H)-one]	22 ± 0.5	3.9 (≈ 9.01 µM)	3.9 (≈ 9.01 µM)	15.6 (≈ 36.1 µM)	3.9 (≈ 9.01 µM)
0.24 (≈ 1.54 µM)	0.0414	−1.1059	4.335	0.879	90 to 91	0.12 (≈ 0.768 µM)	0.12 (≈ 0.768 µM)	0.24 (≈ 1.54 µM)	C=CCNC1=NC(=O)CS1 [Compound 2, 2-(allylamino)thiazol-4(5H)-one]	20 ± 0.2	0.48 (≈ 3.07 µM)	0.24 (≈ 1.54 µM)	0.24 (≈ 1.54 µM)	0.48 (≈ 3.07 µM)
15.6 (≈ 44.7 µM)	2.4679	−4.0118	−1.253	−0.186	204 to 206	3.9 (≈ 11.2 µM)	15.6 (≈ 44.7 µM)	7.81 (≈ 22.4 µM)	O=C1N=C(Nc2ccccc2)SC1=Cc1ccc(Cl)cc1Cl [Compound 6b, 5-(2,4-Dichlorobenzylidene)-2-(phenylamino)thiazol-4(5H)-one]	20 ± 1	31.2 (≈ 89.5 µM)	3.9 (≈ 11.2 µM)	31.2 (≈ 89.5 µM)	7.81 (≈ 22.4 µM)
0.97 (≈ 2.53 µM)	2.22	−3.9066	0.079	−0.443	356	0.48 (≈ 1.25 µM)	1.95 (≈ 5.09 µM)	0.97 (≈ 2.53 µM)	O=C1N=C(Nc2ccccc2)SC1=Cc1coc2ccc(Cl)cc2c1=O [Compound 6e, 5-((6-Chloro-4-oxo-4H-chromen-3-yl)methylene)-2-(phenylamino)thiazol-4(5H)-one]	16 ± 1	3.9 (≈ 10.2 µM)	0.97 (≈ 2.53 µM)	3.9 (≈ 10.2 µM)	3.9 (≈ 10.2 µM)
31.2 (≈ 95.4 µM)	2.2119	−3.7366	−0.549	−0.241	339	7.81 (≈ 23.9 µM)	31.2 (≈ 95.4 µM)	15.6 (≈ 47.7 µM)	C=CCNC1=NC(=O)C(=Cc2csc(-c3ccccc3)n2)S1 [Compound 3d, 2-(Allylamino)-5-((2-phenylthiazol-4-yl)methylene)thiazol-4(5H)-one]	20 ± 0.2	62.5 (≈ 191 µM)	15.6 (≈ 47.7 µM)	62.5 (≈ 191 µM)	31.2 (≈ 95.4 µM)
31.2 (≈ 108 µM)	1.7553	−3.314	1.049	−0.259	265	15.6 (≈ 54 µM)	31.2 (≈ 108 µM)	15.6 (≈ 54 µM)	C=CCNC1=NC(=O)C(=Cc2ccc([N+](=O)[O-])cc2)S1 [Compound 3c, 2-(Allylamino)-5-(4-nitrobenzylidene)thiazol-4(5H)-one]	18 ± 1	31.2 (≈ 108 µM)	31.2 (≈ 108 µM)	31.2 (≈ 108 µM)	15.6 (≈ 54 µM)
